What is called GI50 is the concentration giving 50% growth inhibition.

Test systems include DMS-273; HOP-18; RXF 631; LXFL 529; SNB-78; XF498; KM-20L2; NCI/ADR-RES; MCF7.
What all share (test): DTP human tumour cell line panel, 48 h

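Exposure lasted 48 hours, with cells grown in 96-well plates and compounds tested at five concentrations. The concentration for 50% growth inhibition is given as GI50.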 The source made the active and inactive calls. Rule as the data show it: active = GI50 up to about 1.1 µM and inactive = higher.

Consider `COc1cc(=O)oc(/C=C/C=O)c1C`, for which the GI50 is 17.2 µM (inactive) in the assay with DMS-273; 18 µM (inactive) with HOP-18; 14.7 µM (inactive) with RXF 631; 17.1 µM (inactive) in the assay on LXFL 529; > 10 µM (inactive) in the assay with SNB-78; 17 µM (inactive) with XF498. In addition, the GI50 in the assay on KM-20L2 is 16.8 µM (inactive).
As for `Clc1ccc(OC2CCO2)cc1Cl` (stereo unspecified), the GI50 is 63.1 µM (inactive) with DMS-273; > 100 µM (inactive) with HOP-18; 25.1 µM (inactive) with RXF 631; 70.5 µM (inactive) with LXFL 529; > 100 µM (inactive) with SNB-78; 76.4 µM (inactive) with KM-20L2.
Regarding `COc1ccc2c(c1)OC[C@@H]1c3cc(O)c(OCc4ccccc4)cc3O[C@H]21`, the GI50 was 40.6 µM (inactive) with DMS-273; > 100 µM (inactive) with HOP-18; 45.2 µM (inactive) in the assay with RXF 631; 18.7 µM (inactive) in the assay with LXFL 529; 19.7 µM (inactive) in the assay with SNB-78; 26.2 µM (inactive) in the assay on XF498. Also, the GI50 in the assay on KM-20L2 is 33.9 µM (inactive).
With `Cn1c(=O)c2nc3sc4c(n3c2n(C)c1=O)C(=O)c1ccccc1C4=O`, the GI50 in the assay on DMS-273 was > 100 µM (inactive); in the assay on HOP-18, 0.433 µM (active); in the assay on RXF 631, > 100 µM (inactive); in the assay with NCI/ADR-RES, 19 µM (inactive); with LXFL 529 it was > 100 µM (inactive); with SNB-78 it was > 100 µM (inactive). For the same molecule, the GI50 in the assay with XF498 was > 100 µM (inactive); in the assay on KM-20L2 it was > 100 µM (inactive); in the assay on MCF7, > 25.9 µM (inactive).
Regarding `Clc1cc(Cl)cc(C2SCc3nc4ccccc4n32)c1` (stereo unspecified), the GI50 was 7.28 µM (inactive) with DMS-273; 28.4 µM (inactive) with HOP-18; 14.2 µM (inactive) in the assay on RXF 631; 14.4 µM (inactive) with LXFL 529; 6.03 µM (inactive) in the assay on SNB-78.
For `CCCCCCCCCCC(C)CCCCCCC(=O)OCC(COP(=O)([O-])OCC[N+](C)(C)C)OC(=O)CCCCCCC(C)CCCCCCCCCC` (stereo unspecified), the GI50 with DMS-273, with HOP-18, in the assay with RXF 631, with LXFL 529, with SNB-78 and with KM-20L2 was > 100 µM (inactive) throughout.
Turning to `O=C(NC1CCCCC1)NC12CC3CC(CC(F)(C3)C1)C2`, the GI50 in the assay with DMS-273, in the assay with RXF 631, with LXFL 529, with SNB-78, in the assay with XF498 and in the assay with KM-20L2 was > 100 µM (inactive) in each case.
Turning to `c1ccc(C2N3CCCCC3[C@@H]3c4[nH]c5ccccc5c4CCN23)cc1` (stereo partly specified), the GI50 was 50.7 µM (inactive) in the assay with DMS-273; > 100 µM (inactive) with HOP-18; 85.3 µM (inactive) in the assay on LXFL 529; 47.5 µM (inactive) with SNB-78; > 100 µM (inactive) in the assay with XF498; > 100 µM (inactive) in the assay with KM-20L2.
In the case of `COc1ccc(C(=O)c2c3cc(OC)c(OC)c(OC)c3cc[n+]2C)cc1`, the GI50 in the assay on HOP-18 is 20.6 µM (inactive); with RXF 631 it was 37.4 µM (inactive); with LXFL 529, 24.9 µM (inactive); in the assay on SNB-78 it was 38.5 µM (inactive); in the assay with XF498, 15 µM (inactive); with KM-20L2 it was 28.3 µM (inactive).
As for `Cn1nc(-c2ccccc2)c(C(=O)/C=C/c2ccccc2)c(N2CCCC2)c1=O`, the GI50 in the assay with DMS-273 is 14.7 µM (inactive); in the assay with HOP-18 it was 16.4 µM (inactive); in the assay on RXF 631, 29 µM (inactive); in the assay with LXFL 529, 11.9 µM (inactive); with XF498, 18.8 µM (inactive); in the assay on KM-20L2, 14.5 µM (inactive).
Take `Cc1ccc(S(=O)(=O)OCCOCCOCCOCCOCCOS(=O)(=O)c2ccc(C)cc2)cc1`: the GI50 with DMS-273 is 28.6 µM (inactive); in the assay on HOP-18 it was 65.3 µM (inactive); with RXF 631, 27.1 µM (inactive); with LXFL 529 it was 33.7 µM (inactive); in the assay on SNB-78, 83.9 µM (inactive); with KM-20L2, 59.2 µM (inactive).
For the molecule `CCCCCCCCCCCCNC(=S)OC`, the GI50 in the assay on DMS-273 was 15.4 µM (inactive); with HOP-18, 17 µM (inactive); in the assay with LXFL 529 it was 14.8 µM (inactive); in the assay with SNB-78, 21.5 µM (inactive); in the assay on XF498 it was 16.6 µM (inactive); in the assay with KM-20L2, 16.3 µM (inactive).

The record behind these values is ChEMBL document CHEMBL1201862, “PubChem BioAssay data set” (2004).
